Test results: patent US11136329B2, “JAK inhibitors” (Vimalan Biosciences, Inc., priority 2019, dated 2021)

Columns and labels:
Assay type in all cases: biochemical
JAK2 = JAK2 (Homo sapiens (Human), UniProt O60674); assay: JAK/TYK2 assay (Kinase Glo luminescence), JAK2; conditions: 0.8 nM enzyme, 2 uM ATP, 4 uM pEY, 1 hr
Description: (§1) 10 mM test compound stock or 1 mM control compound stock (tofocitinib, ruxolitinib or staurosporine) in DMSO was diluted to 0.4 mM in DMSO. A 3-fold series dilution was then performed in DMSO to generate 10 different compound concentrations. The assay was carried out in 384-well white plate. 0.5 uL of 40× compound DMSO solution at different concentrations was mixed with 10 uL 2× enzyme prepared in reaction buffer (20 mM HEPES, 10 mM MgCl2, 0.01% Tween, 1 mM DTT, pH 7.5). 10 uL 2× substrate mixture prepared in reaction buffer was then added to start the reaction. A short spin was done to settle down all solutions to the bottom of the plate. Final concentrations of test compound in the reaction mixture were 10000, 3333, 1111, 370, 123, 41.2, 13.7, 4.57, 1.52and 0.51 nM. Concentrations of control compound were ten times less. Enzymatic reaction was conducted at 25° C. for 1-2 hours. 10 uL of Kinase Glo Reagents was added to stop the reaction and generate the luminescent signal which was measured using Envision. Luminescence signal was inversely related to kinase activity. […] The mixture without any compound was the positive control.

TYK2 = TYK2 (Homo sapiens (Human), UniProt P29597); assay: JAK/TYK2 assay (Kinase Glo luminescence), TYK2; conditions: 9 nM enzyme, 2 uM ATP, 30 uM IRS-1, 1 hr
Description: as §1

JAK3 = JAK3 (Homo sapiens (Human), UniProt P52333); assay: JAK/TYK2 assay (Kinase Glo luminescence), JAK3; conditions: 1.5 nM enzyme, 2 uM ATP, 4 uM pEY, 1 hr
Description: as §1

JAK1 = JAK1 (Homo sapiens (Human), UniProt P23458); assay: JAK/TYK2 assay (Kinase Glo luminescence), JAK1; conditions: 7.5 nM enzyme, 2 uM ATP, 30 uM IRS-1, 1 hr
Description: as §1

Sequence of JAK1 (P23458 whole entry, species assumed): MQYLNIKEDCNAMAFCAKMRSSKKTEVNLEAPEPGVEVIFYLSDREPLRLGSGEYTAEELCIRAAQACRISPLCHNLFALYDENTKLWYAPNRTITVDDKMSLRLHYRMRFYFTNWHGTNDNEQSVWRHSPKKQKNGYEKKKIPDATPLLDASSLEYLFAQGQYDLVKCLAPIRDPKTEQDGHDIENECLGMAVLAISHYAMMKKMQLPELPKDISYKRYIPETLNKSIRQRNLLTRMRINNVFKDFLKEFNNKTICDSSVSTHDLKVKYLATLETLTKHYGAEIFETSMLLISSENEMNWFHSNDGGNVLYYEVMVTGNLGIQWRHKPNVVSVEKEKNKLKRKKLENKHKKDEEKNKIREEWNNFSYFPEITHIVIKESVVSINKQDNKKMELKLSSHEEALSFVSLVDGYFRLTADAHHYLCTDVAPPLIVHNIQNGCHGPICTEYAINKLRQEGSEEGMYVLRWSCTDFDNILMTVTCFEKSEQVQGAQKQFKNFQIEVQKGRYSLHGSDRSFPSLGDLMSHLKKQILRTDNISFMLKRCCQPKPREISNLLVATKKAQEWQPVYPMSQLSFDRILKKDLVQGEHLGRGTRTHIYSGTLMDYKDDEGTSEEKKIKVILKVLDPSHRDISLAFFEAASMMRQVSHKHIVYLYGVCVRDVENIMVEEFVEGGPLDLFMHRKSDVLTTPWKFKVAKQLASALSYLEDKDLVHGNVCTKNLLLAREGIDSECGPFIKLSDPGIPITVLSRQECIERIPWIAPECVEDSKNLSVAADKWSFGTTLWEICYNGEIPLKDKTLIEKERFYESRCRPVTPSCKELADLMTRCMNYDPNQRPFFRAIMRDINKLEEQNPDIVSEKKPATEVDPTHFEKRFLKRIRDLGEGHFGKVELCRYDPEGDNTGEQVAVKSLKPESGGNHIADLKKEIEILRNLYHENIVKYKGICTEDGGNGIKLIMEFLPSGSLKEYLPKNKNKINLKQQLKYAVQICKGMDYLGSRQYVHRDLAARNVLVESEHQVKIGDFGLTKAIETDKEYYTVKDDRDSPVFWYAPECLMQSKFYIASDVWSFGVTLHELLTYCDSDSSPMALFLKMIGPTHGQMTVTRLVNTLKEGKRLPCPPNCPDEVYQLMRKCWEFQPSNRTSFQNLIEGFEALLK
Sequence of TYK2 (P29597 whole entry, species assumed): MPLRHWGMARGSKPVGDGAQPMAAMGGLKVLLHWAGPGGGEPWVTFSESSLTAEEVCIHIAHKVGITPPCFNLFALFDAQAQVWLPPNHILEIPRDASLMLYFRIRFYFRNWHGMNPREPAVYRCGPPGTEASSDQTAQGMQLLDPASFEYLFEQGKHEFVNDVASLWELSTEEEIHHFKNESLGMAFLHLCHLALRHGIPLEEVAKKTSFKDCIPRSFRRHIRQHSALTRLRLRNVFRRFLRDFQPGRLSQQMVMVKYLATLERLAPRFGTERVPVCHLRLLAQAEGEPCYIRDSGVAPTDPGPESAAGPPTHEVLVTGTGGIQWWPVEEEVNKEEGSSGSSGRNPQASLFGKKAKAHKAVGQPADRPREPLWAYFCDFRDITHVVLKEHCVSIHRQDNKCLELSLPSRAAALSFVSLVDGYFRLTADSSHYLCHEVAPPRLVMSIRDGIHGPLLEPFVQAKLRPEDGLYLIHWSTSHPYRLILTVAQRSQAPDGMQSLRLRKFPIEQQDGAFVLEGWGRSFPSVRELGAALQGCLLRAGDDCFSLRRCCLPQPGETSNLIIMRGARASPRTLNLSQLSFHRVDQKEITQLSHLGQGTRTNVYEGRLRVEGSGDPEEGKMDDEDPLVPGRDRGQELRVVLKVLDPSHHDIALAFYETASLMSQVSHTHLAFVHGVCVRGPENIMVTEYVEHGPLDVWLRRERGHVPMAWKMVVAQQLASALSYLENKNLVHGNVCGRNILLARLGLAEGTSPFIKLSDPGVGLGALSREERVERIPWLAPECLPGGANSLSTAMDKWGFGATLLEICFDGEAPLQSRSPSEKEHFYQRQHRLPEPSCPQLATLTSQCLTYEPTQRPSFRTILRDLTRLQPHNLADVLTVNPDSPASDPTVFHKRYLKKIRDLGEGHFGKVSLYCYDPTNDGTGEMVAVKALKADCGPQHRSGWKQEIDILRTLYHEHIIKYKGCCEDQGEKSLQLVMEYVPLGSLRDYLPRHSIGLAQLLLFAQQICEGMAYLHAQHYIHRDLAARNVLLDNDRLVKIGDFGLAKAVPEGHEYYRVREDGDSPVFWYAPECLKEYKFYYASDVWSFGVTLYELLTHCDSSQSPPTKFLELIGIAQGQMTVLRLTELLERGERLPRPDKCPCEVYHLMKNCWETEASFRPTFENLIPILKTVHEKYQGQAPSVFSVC
Sequence of JAK3 (P52333 whole entry, species assumed): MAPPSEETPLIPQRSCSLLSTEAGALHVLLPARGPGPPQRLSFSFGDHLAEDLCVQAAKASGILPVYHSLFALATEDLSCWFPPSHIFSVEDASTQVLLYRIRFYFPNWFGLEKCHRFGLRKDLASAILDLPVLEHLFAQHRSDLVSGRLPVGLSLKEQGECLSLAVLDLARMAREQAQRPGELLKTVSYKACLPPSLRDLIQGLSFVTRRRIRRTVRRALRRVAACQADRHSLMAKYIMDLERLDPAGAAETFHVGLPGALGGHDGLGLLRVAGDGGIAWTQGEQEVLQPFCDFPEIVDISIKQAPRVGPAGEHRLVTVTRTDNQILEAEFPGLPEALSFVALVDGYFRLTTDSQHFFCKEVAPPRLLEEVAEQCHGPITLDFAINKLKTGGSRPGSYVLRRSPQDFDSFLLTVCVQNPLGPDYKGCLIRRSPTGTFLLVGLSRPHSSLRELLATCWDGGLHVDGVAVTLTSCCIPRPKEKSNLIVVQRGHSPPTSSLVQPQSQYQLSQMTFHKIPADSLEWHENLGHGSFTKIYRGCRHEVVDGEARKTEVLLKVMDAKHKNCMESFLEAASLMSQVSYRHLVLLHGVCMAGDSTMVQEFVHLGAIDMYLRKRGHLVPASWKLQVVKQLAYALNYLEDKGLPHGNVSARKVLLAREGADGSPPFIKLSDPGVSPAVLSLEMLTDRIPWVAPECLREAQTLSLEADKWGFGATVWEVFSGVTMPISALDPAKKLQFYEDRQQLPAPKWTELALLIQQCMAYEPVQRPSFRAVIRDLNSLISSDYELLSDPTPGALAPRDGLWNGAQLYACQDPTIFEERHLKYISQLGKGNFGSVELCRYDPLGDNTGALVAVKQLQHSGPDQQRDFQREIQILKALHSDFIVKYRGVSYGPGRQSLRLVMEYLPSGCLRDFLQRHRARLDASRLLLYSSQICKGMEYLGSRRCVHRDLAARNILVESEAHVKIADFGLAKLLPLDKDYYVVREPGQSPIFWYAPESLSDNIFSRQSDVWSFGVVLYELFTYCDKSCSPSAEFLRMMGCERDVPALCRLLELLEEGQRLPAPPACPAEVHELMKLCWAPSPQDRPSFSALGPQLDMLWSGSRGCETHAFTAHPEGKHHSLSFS
Sequence of JAK2 (O60674 whole entry, species assumed): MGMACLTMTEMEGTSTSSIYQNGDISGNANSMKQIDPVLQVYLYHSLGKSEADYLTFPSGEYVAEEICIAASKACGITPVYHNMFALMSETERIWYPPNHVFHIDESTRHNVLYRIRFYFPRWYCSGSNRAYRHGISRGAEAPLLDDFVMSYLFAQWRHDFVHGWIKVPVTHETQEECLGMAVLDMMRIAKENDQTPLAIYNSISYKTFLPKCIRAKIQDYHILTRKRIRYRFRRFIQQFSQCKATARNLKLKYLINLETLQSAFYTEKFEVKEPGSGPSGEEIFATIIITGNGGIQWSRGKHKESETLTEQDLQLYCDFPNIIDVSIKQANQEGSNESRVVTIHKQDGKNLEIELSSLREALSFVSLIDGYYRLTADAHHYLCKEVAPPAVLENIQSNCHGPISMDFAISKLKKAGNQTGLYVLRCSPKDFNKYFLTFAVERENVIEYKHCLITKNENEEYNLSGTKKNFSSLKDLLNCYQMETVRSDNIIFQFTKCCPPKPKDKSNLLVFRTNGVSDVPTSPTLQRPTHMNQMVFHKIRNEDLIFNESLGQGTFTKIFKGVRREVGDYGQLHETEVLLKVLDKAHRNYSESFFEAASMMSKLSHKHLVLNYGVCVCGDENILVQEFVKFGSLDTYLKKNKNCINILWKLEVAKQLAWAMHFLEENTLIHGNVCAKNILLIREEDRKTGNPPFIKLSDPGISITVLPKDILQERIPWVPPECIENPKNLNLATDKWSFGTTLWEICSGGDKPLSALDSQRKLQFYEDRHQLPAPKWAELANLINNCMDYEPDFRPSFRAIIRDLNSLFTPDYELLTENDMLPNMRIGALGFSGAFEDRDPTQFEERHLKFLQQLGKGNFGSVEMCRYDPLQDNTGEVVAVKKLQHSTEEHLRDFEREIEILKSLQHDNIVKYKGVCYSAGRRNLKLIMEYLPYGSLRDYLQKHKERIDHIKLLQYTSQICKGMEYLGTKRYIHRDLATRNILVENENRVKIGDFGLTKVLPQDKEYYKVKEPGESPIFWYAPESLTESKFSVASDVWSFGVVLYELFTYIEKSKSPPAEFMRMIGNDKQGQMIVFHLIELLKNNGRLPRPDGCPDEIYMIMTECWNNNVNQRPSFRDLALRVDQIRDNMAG

Structure (SMILES) | IC50 (JAK2) | IC50 (TYK2) | IC50 (JAK3) | IC50 (JAK1)
CCC(Cn1ccc2cnc(Nc3cnn(CC(=O)O)c3)nc21)C(C)C (centres unmarked) [Compound 29, 2-(4-((7-(2-ethyl-3-methylbutyl)-7H-pyrrolo[2,3-d]pyrimidin-2-yl)amino)-1H-pyrazol-1-yl)acetic acid] | < 0.1 µM | < 0.1 µM | < 0.1 µM | < 0.1 µM
CCOC(=O)CCn1cc(Nc2ncc3ccn(CC(CC)C(C)C)c3n2)cn1 (centres unmarked) [Compound 30, ethyl 3-(4-((7-(2-ethyl-3-methylbutyl)-7H-pyrrolo[2,3-d]pyrimidin-2-yl)amino)-1H-pyrazol-1-yl)propanoate] | < 0.1 µM | < 0.1 µM | < 0.1 µM | < 0.1 µM
CCC(Cn1ccc2cnc(Nc3cnn(CCC(=O)O)c3)nc21)C(C)C (centres unmarked) [Compound 31, 3-(4-((7-(2-ethyl-3-methylbutyl)-7H-pyrrolo[2,3-d]pyrimidin-2-yl)amino)-1H-pyrazol-1-yl)propanoic acid] | < 0.1 µM | < 0.1 µM | < 0.1 µM | < 0.1 µM
CCOC(=O)Cn1cc(Nc2ncc3ccn(CC45CC6CC(CC(C6)C4)C5)c3n2)cn1 [Compound 34, ethyl 2-(4-((7-(((s,3s)-adamantan-1-yl)methyl)-7H-pyrrolo[2,3-d]pyrimidin-2-yl)amino)-1H-pyrazol-1-yl)acetate] | < 0.1 µM | < 0.1 µM | < 0.1 µM | 0.1 to 1 µM
CCOC(=O)Cn1cc(Nc2ncc3ccn(CC4CCCCC4(F)F)c3n2)cn1 (centres unmarked) [Compound 35, ethyl 2-(4-((7-((2,2-difluorocyclohexyl)methyl)-7H-pyrrolo[2,3-d]pyrimidin-2-yl)amino)-1H-pyrazol-1-yl)acetate] | < 0.1 µM | < 0.1 µM | < 0.1 µM | < 0.1 µM
CCOC(=O)Cn1cc(Nc2ncc3ccn(CC4CCCC(F)(F)C4)c3n2)cn1 (centres unmarked) [Compound 36, ethyl 2-(4-((7-((3,3-difluorocyclohexyl)methyl)-7H-pyrrolo[2,3-d]pyrimidin-2-yl)amino)-1H-pyrazol-1-yl)acetate] | < 0.1 µM | < 0.1 µM | < 0.1 µM | < 0.1 µM
O=C(O)Cn1cc(Nc2ncc3ccn(CC4CCCCC4(F)F)c3n2)cn1 (centres unmarked) [Compound 37, 2-(4-((7-((2,2-difluorocyclohexyl)methyl)-7H-pyrrolo[2,3-d]pyrimidin-2-yl)amino)-1H-pyrazol-1-yl)acetic acid] | < 0.1 µM | < 0.1 µM | < 0.1 µM | < 0.1 µM
O=C(O)Cn1cc(Nc2ncc3ccn(CC4CCCC(F)(F)C4)c3n2)cn1 (centres unmarked) [Compound 38, 2-(4-((7-((3,3-difluorocyclohexyl)methyl)-7H-pyrrolo[2,3-d]pyrimidin-2-yl)amino)-1H-pyrazol-1-yl)acetic acid] | < 0.1 µM | < 0.1 µM | < 0.1 µM | < 0.1 µM
CCOC(=O)Cn1cc(Nc2ncc3ccn(CC4CC5CCC4C5)c3n2)cn1 (centres unmarked) [Compound 40, ethyl 2-(4-((7-(bicyclo[2.2.1]heptan-2-ylmethyl)-7H-pyrrolo[2,3-d]pyrimidin-2-yl)amino)-1H-pyrazol-1-yl)acetate] | < 0.1 µM | < 0.1 µM | < 0.1 µM | < 0.1 µM
CCOC(=O)Cn1cc(Nc2ncc3ccn(CC4(C)CCCC4)c3n2)cn1 [Compound 41, ethyl 2-(4-((7-((1-methylcyclopentyl)methyl)-7H-pyrrolo[2,3-d]pyrimidin-2-yl)amino)-1H-pyrazol-1-yl)acetate] | < 0.1 µM | < 0.1 µM | < 0.1 µM | < 0.1 µM
CCOC(=O)Cn1cc(Nc2ncc3ccn(CC4CCCCC4C)c3n2)cn1 (centres unmarked) [Compound 42, ethyl 2-(4-((7-((2-methylcyclohexyl)methyl)-7H-pyrrolo[2,3-d]pyrimidin-2-yl)amino)-1H-pyrazol-1-yl)acetate] | < 0.1 µM | < 0.1 µM | < 0.1 µM | < 0.1 µM
CCOC(=O)Cn1cc(Nc2ncc3ccn(CC4CCCCCC4)c3n2)cn1 [Compound 43, ethyl 2-(4-((7-(cycloheptylmethyl)-7H-pyrrolo[2,3-d]pyrimidin-2-yl)amino)-1H-pyrazol-1-yl)acetate] | < 0.1 µM | < 0.1 µM | < 0.1 µM | 0.1 to 1 µM
CCOC(=O)Cn1ccc(Nc2ncc3ccn(CC(CC)CC)c3n2)n1 [Compound 44, ethyl 2-(3-((7-(2-ethylbutyl)-7H-pyrrolo[2,3-d]pyrimidin-2-yl)amino)-1H-pyrazol-1-yl)acetate] | 0.1 to 1 µM | 0.1 to 1 µM | 0.1 to 1 µM | 1 to 10 µM
CCOC(=O)Cn1cc(Nc2ncc3ccn(CC4CCCC(C)C4)c3n2)cn1 (centres unmarked) [Compound 45, ethyl 2-(4-((7-((3-methylcyclohexyl)methyl)-7H-pyrrolo[2,3-d]pyrimidin-2-yl)amino)-1H-pyrazol-1-yl)acetate] | < 0.1 µM | < 0.1 µM | < 0.1 µM | < 0.1 µM
CCOC(=O)Cn1cc(Nc2ncc3ccn(CC4CCC(C)CC4)c3n2)cn1 (centres unmarked) [Compound 46, ethyl 2-(4-((7-((4-methylcyclohexyl)methyl)-7H-pyrrolo[2,3-d]pyrimidin-2-yl)amino)-1H-pyrazol-1-yl)acetate] | < 0.1 µM | < 0.1 µM | < 0.1 µM | < 0.1 µM
CCOC(=O)Cn1cc(Nc2ncc3ccn(CC4(C)CCCCC4)c3n2)cn1 [Compound 47, ethyl 2-(4-((7-((1-methylcyclohexyl)methyl)-7H-pyrrolo[2,3-d]pyrimidin-2-yl)amino)-1H-pyrazol-1-yl)acetate] | < 0.1 µM | < 0.1 µM | < 0.1 µM | < 0.1 µM
CCOC(=O)Cn1cc(Nc2ncc3ccn(C[C@@H]4C[C@@H]5C[C@@H]5C4)c3n2)cn1 [Compound 48, ethyl 2-(4-((7-(((1R,3r,5S)-bicyclo[3.1.0]hexan-3-yl)methyl)-7H-pyrrolo[2,3-d]pyrimidin-2-yl)amino)-1H-pyrazol-1-yl)acetate] | < 0.1 µM | < 0.1 µM | < 0.1 µM | < 0.1 µM
CCOC(=O)Cn1cc(Nc2ncc3ccn(CC(CC)C(C)C)c3n2)cn1 (centres unmarked) [Compound 49, ethyl 2-(4-((7-(2-ethyl-3-methylbutyl)-7H-pyrrolo[2,3-d]pyrimidin-2-yl)amino)-1H-pyrazol-1-yl)acetate] | < 0.1 µM | < 0.1 µM | < 0.1 µM | < 0.1 µM
CCOC(=O)Cn1cc(Nc2ncc3ccn(CC(C(C)C)C(C)C)c3n2)cn1 [Compound 50, ethyl 2-(4-((7-(2-isopropyl-3-methylbutyl)-7H-pyrrolo[2,3-d]pyrimidin-2-yl)amino)-1H-pyrazol-1-yl)acetate] | < 0.1 µM | < 0.1 µM | < 0.1 µM | < 0.1 µM
CCOC(=O)Cn1cc(Nc2ncc3ccn(C[C@H]4CC[C@H](O)CC4)c3n2)cn1 [Compound 51, ethyl 2-(4-((7-(((1r,4r)-4-hydroxycyclohexyl)methyl)-7H-pyrrolo[2,3-d]pyrimidin-2-yl)amino)-1H-pyrazol-1-yl)acetate] | < 0.1 µM | < 0.1 µM | < 0.1 µM | < 0.1 µM
